From US20170081383A1, “MELANOCORTIN ANALOGS HAVING ENHANCED ACTIVITY AND TRANSPORT” (Tensive Controls Inc., priority 2012, published 2017) come the findings set out here.

Data set [1] deals with LPS-induced cachexia in rats. As to the kind of experiment: Lipopolysaccharide (LPS)-induced cachexia assay. Type of data set: in vivo, rat. Particulars: for blood-brain barrier transport (concluded from peripheral vs ICV activity) / anti-cachectic activity after ICV (IVt) administration (in words): LPS model; for peripheral (IP) anti-cachexia activity, feeding (in words): peripheral / intraperitoneal administration after LPS; for anti-cachectic activity after ICV (IVt) administration (in words): intracerebroventricular administration. As for the experimental part:
The LPS model uses rats were maintained on a 12 h light/dark schedule with ad libitum access to food and water. Animals were handled daily for a minimum of three consecutive days to decrease non-specific handling stress. On the day of the experiment, individually housed animals received intraperitoneal injections of LPS dissolved in 0.5% low-endotoxin BSA, 0.9% saline or 0.5% BSA in 0.9% saline alone, and were returned to their home cage. The drug or control was administered (ICV, IP, or PO, depending on the type of study) 1-hour after LPS injection.
In the experiments described herein, a series of melanocortin receptor antagonist peptides were examined in a bacterial endotoxin inducing cachexia assay. For this assay, a rat is challenged with a single peripheral injection of lipopolysaccharide (LPS). LPS is a heat-stable lipo-polysaccharide, the major component of the outer membrane (capsule) of gram negative bacteria. In non-capsulated strains, it appears as a cell surface […]. LPS produces a strong immune response, including secretion of the proinflammatory cytokines Tumor Necrosis Factor α (TNFα) and interleukin-1 (IL-1). Proinflammatory cytokines are known factors that induce cachexia.
Rats are maintained on a 12-hour light/dark cycle. Animals are handled daily for a minimum of 5 consecutive days to acclimate them to the handling required for the experiment. […] On the day of the experiment, individually housed animals receive intraperitoneal (IP) injections of LPS dissolved in 0.5% low-endotoxin BSA, 0.9% saline or 0.5% BSA in 0.9% saline alone, and returned in their home cage. Melanocortin receptor antagonist peptides were administered (IP or by gavage, depending on the type of study) one hour after the LPS injection. The extent of cachexia is measured by the reduction in food intake, measured every two hours. The cachexia typically lasts only a single day. However, rats lose up to 5% of their body weight during a 12-hour light cycle, making up this loss plus food needed for normal growth during the 12-hour dark cycle. Thus, failure to eat appropriately during a single dark cycle is determinable from the animal's weight and any changes thereof.
A series of melanocortin receptor antagonist peptides were examined in a bacterial toxin inducing cachexia assay. In this assay, a rat was challenged with a single peripheral injection of lipopolysaccharide (LPS), a bacterial toxin that rapidly induces acute cachexia. The extent of cachexia was measured as a reduction in food intake, measured every two hours. The cachexia typically lasts only a single day.

For data set [2], the system named is urethane-anesthetized rats. The data set can be described thus: Cardiovascular activity of melanocortin peptides (MAP, heart rate, ECG). Particulars: for Duration / Peak Heart Rate Response (BPM) / Peak MAP Response (Δ mm Hg): 250 nmol, n = 5.
Procedure: These studies were performed in urethane-anesthetized rats, since anesthesia is required for six-lead ECG monitoring. […] Initial selection of doses was guided by FDA exploratory IND studies with a recommendation for at least a 100-fold excess of the human dose.

“Also recorded” adds a separate entry of the source. Positions of bridges follow the written chain, without caps; N, C: chain ends. Non-standard residues stand in square brackets, D forms with d. Residues, ends and D or L forms follow the SMILES beside them. β2Val = β2-Val (beta2-Val), beta-amino acid; d2Nal = N[C@H](Cc1ccc2ccccc2c1)C(=O)O; β3hV = CC(C)[C@H](N)CC(=O)O; β3hP = O=C(O)C[C@@H]1CCCN1; Nle = CCCC[C@H](N)C(=O)O

As for “Ac-Nle-c[Asp-Pro-D-Nal(2′)-Arg-Trp-Lys]-β^2-Val-β^3-Pro-NH2 (Ac-[Nle]DP[d2Nal]RWK[β2Val][β3hP]-NH2; lactam 2-7) [TCMCB08]”, in data set [1], the “blood-brain barrier transport (concluded from peripheral vs ICV activity)” value is “good blood-brain barrier transport” and the “peripheral (IP) anti-cachexia activity, feeding (in words)” value (“peripheral (IP) anti-cachexia activity” below) is “has peripheral activity”. Besides, the “oral activity / gastrointestinal transport (in words)” value in data set [1] (gavage (intra-gastric) administration, LPS cachexia) was “not as much oral activity as TCMCB07; also recorded: no gastrointestinal transport”.
Regarding “Ac-Nle-c[Asp-Pro-D-Nal(2′)-Arg-Trp-Lys]-β^3-Val-β^3-Pro-NH2 (Ac-[Nle]DP[d2Nal]RWK[β3hV][β3hP]-NH2; lactam 2-7) [TCMCB09]”, the “peripheral (IP) anti-cachexia activity” value in data set [1] is “inactive peripherally”.
In the case of “Ac-Nle-c[Asp-Pro-D-Nal(2′)-Arg-Trp-Lys]-β^3-Pro-β^3-Pro-NH2 (Ac-[Nle]DP[d2Nal]RWK[β3hP][β3hP]-NH2; lactam 2-7; SMILES CCCC[C@H](NC(C)=O)C(=O)N[C@H]1CC(=O)NCCCC[C@@H](C(=O)N2CCC[C@H]2CC(=O)N2CCC[C@H]2CC(N)=O)NC(=O)[C@H](Cc2c[nH]c3ccccc23)NC(=O)[C@H](CCCNC(=N)N)NC(=O)[C@@H](Cc2ccc3ccccc3c2)NC(=O)[C@@H]2CCCN2C1=O) [TCMCB10]”, in data set [1], the “blood-brain barrier transport (concluded from peripheral vs ICV activity)” value is “failure to cross the blood-brain barrier”; the “anti-cachectic activity after ICV (IVt) administration (in words)” value (from here on “anti-cachectic activity after ICV”) is on record as “maintaining direct inhibitory effects”; the “peripheral (IP) anti-cachexia activity” value is on record as “no peripheral activity”.
For “Ac-Nle-c[D-Asp-Pro-D-Nal(2′)-Arg-Trp-D-Lys]-D-Pro-D-Val-NH2 (Ac-[Nle][dD]P[d2Nal]RW[dK][dP][dV]-NH2; lactam 2-7) [TCMCB04]”, in data set [1], the “blood-brain barrier transport (concluded from peripheral vs ICV activity)” value is given as “eliminated blood brain barrier transport; also recorded: no transport across the blood-brain barrier”; the “anti-cachectic activity after ICV” value is given as “superior anti-cachectic activity compared to the parent compound”; the “peripheral (IP) anti-cachexia activity” value was “No difference was observed between the peptide and saline”.
On to `CCCC[C@H](NC(C)=O)C(=O)N[C@H]1CC(=O)NCCCC[C@@H](C(=O)N2CCC[C@@H]2C(=O)N[C@@H](C(N)=O)C(C)C)NC(=O)[C@H](Cc2c[nH]c3ccccc23)NC(=O)[C@H](CCCNC(=N)N)NC(=O)[C@@H](Cc2ccc3ccccc3c2)NC(=O)[C@@H]2CCCN2C1=O` [TCMCB02, Ac-Nle-c[Asp-Pro-D-Nal(2′)-Arg-Trp-Lys]-D-Pro-D-Val-NH2] (Ac-[Nle]DP[d2Nal]RWK[dP][dV]-NH2; lactam 2-7 (inferred)), for which the “cardiovascular and behavioral side effects (in words)” value in data set [2] (rats) is given as “no cardiovascular or dose-limiting behavioral side effects”. Also, the “blood-brain barrier transport (concluded from peripheral vs ICV activity)” value in data set [1] is “only has blood-brain barrier transport”.
For the compound “Ac-Nle-c[Asp-Pro-D-Nal(2′)-Arg-Trp-Lys]-D-Val-D-Pro-OH (Ac-[Nle]DP[d2Nal]RWK[dV][dP]-OH; lactam 2-7) [TCMCB07A]”, the “peripheral (IP) anti-cachexia activity” value in data set [1] is listed as “equivalent stimulation of feeding”.
Turning to “Ac-Nle-c[Asp-His-D-Nal(2′)-Arg-Trp-Lys]-D-Pro-D-Val-NH2 (Ac-[Nle]DH[d2Nal]RWK[dP][dV]-NH2; lactam 2-7; SMILES CCCC[C@H](NC(C)=O)C(=O)N[C@H]1CC(=O)NCCCC[C@@H](C(=O)N2CCC[C@@H]2C(=O)N[C@@H](C(N)=O)C(C)C)NC(=O)[C@H](Cc2c[nH]c3ccccc23)NC(=O)[C@H](CCCNC(=N)N)NC(=O)[C@@H](Cc2ccc3ccccc3c2)NC(=O)[C@H](Cc2c[nH]cn2)NC1=O) [TCMCB03]”, in data set [1], the “blood-brain barrier transport (concluded from peripheral vs ICV activity)” value is given as “failed to cross the blood brain barrier; also recorded: less blood-brain barrier transport activity”; the “anti-cachectic activity after ICV” value is “enhanced anti-cachexia; also recorded: superior anti-cachexia activity following ICV administration”; the “peripheral (IP) anti-cachexia activity” value is “did not possess as good peripheral”.
Consider “Ac-Ser-Tyr-Nle-Glu-His-D-Phe-Arg-Trp-Gly-Lys-Pro-Val-NH2 [MT-I]”, for which, in data set [2], the “Duration” value was 0 min, the “Peak Heart Rate Response (BPM)” value is 0/0 BPM and the “Peak MAP Response (Δ mm Hg)” value is 0/0 mm Hg.
“Ac-Nle-c[Asp-Pro-D-Nal(2′)-Arg-Trp-Lys]-β^3-Pro-β^3-Val-NH2 (Ac-[Nle]DP[d2Nal]RWK[β3hP][β3hV]-NH2; lactam 2-7) [TCMCB06]”: the “food intake, 24 hours after LPS challenge” value in data set [1] (0.2 mg/kg intraperitoneally, FIG. 8A) is recorded as “ate significantly less food than the other drug candidates”. Besides, in data set [1] (0.2 mg/kg intraperitoneally, FIG. 8B), the “body weight (percent of pre-LPS baseline), 24 hours after LPS challenge” value was “no weight gain”. Besides, in data set [1] (ICV administration, LPS-induced cachexia), the “molar activity relative to TCMCB02” value is recorded as 10 fold. In data set [1], the “anti-cachectic activity after ICV” value is “molar activity equivalent to TCMCB02” and the “peripheral (IP) anti-cachexia activity” value is reported as “only TCMCB05 (β^3-Pro-β^2-Val) had IP anti-cachexia activity; also recorded: only TCMCB05 had peripheral anti-cachexia activity”.
On to “Ac-Nle-c[Asp-His-D-Nal(2′)-Arg-Trp-Lys]-NH2 [SHU9119]”, for which, in data set [2], the “Peak Heart Rate Response (BPM)” value is listed as 3 ± 14 BPM and the “Peak MAP Response (Δ mm Hg)” value is listed as 16 ± 5 mm Hg.
Regarding `CCCC[C@H](NC(C)=O)C(=O)N[C@H]1CC(=O)NCCCC[C@@H](C(=O)O)NC(=O)[C@H](Cc2c[nH]c3ccccc23)NC(=O)[C@H](CCCN=C(N)N)NC(=O)[C@@H](Cc2ccccc2)NC(=O)[C@H](Cc2cnc[nH]2)NC1=O` [PT-141, Ac-Nle-c[Asp-His-D-Phe-Arg-Trp-Lys]-COOH], in data set [2], the “Duration” value came to 140 ± 53 min, the “Peak Heart Rate Response (BPM)” value amounted to 44 ± 6 BPM and the “Peak MAP Response (Δ mm Hg)” value is 32 ± 6 mm Hg. The lethality entry in data set [2] (900 nmol/kg IV, FIG. 1C) is listed as “lethal dose”. Further, the “MAP reached after dosing” value in data set [2] (900 nmol/kg IV, baseline MAP 80 mmHg, then precipitously falling) amounted to 140 mmHg. In addition, the “heart rate course after dosing” value in data set [2] (900 nmol/kg IV, baseline heart rate 312) is reported as “progressively fell”. In addition, in data set [2] (IV 600 nmol/kg, FIG. 1A-B), the “ECG tracing (lead 2) finding” value was “inverted P-wave”.
